# Test results from patent US12569464B2, “Protein-protein interaction inducing technology” (Arvinas Operations, Inc., priority 2016, dated 2026).
# Like-named read-outs stand apart in the source and are kept apart here.
# Experiments:
# [1] = tested on: c-Myc expression; test: c-Myc ELISA assay in 22RV1 cells; format: cell-based, human
# Procedure: It is composed of a BRD4-binding warhead which is connected to a VHL-binding warhead by a linear connector. […] Either the inhibition of BRD4 (by binding and blocking the active site of BRD4) or the degradation of BRD4 leads to the down-regulation of the expression level of a downstream protein c-Myc. […] MD simulation of a ternary system composed of BRD4 bromodomain 1, the ligand L and the complex of VHL with EB and EC in the presence of explicit water was performed.
# The connector linking the BRD-4 binding warhead and the cereblon-binding warhead was systematically probed from 2 to 8 atoms. For comparison, the parent inhibitor of BRD4 (compound JQ1) was also prepared. […] The expression level of a downstream protein c-Myc was measured. In this assay, either the inhibition of BRD4 (by binding and blocking the active site of BRD4) or the degradation of BRD4 leads to the down-regulation of the expression level of c-Myc.
# The connector linking the BRD4 warhead and the VHL-binding warhead was systematically probed from 5 to 19 atoms. […] The expression level of a downstream protein c-Myc was measured. In this assay, either the inhibition of BRD4 (e.g., by binding and blocking the active site of BRD4) or the degradation of BRD4 results in the down-regulation of the expression level of c-Myc.
# c-Myc ELISA Assay Protocol
# 22RV-1 cells were purchased from ATCC and cultured in RPMI+10% FBS media. Cells were harvested using trypsin (Gibco #25200-114), counted and seeded at 30,000 cells/well at a volume of 75 μL/well in RPMI+10% FBS media in 96-well plates. The cells were dosed with compounds diluted in 0.1% DMSO, incubated for 18h then washed and lysed in 50 uL RIPA buffer (50 mM Tris pH8, 150 mM NaCl, 1% Tx-100, 0.1% SDS, 0.5% sodium deoxycholate) supplemented with protease and phosphatase inhibitors. The lysates were clarified at 4000 rpm at 4° C. for 10 minutes then aliquots were added into a 96-well ELISA plate of Novex Human c-Myc ELISA kit from Life Technologies Catalog #KHO2041. 50 µL of c-Myc Detection antibody was added into every well, the plates incubated at room temperature for 3 hrs, then washed with ELISA wash buffer. 100 μL of the anti-rabbit IgG-HRP secondary antibody was added to each well and incubated at room temperature for 30 minutes. The plates were washed with ELISA wash buffer, 100 μL TMB added to each well, and then monitored every 5 minutes for a color change. 100 μL of stop solution is added and the plates read at 450 nm.
# [2] = biological target: T1, AR (Homo sapiens, UniProt P10275+P40337, T878A); test: AR degradation in LNCaP cells (androgen receptor ELISA); format: cell-based; settings: LNCaP cells; for DC50: read-out: AR degradation potency DC50
# T1 construct: degradation Dmax of AR in LNCaP cells; endogenous in cells; host or cells: LNCaP
# T1 sequence (Q15370 whole entry): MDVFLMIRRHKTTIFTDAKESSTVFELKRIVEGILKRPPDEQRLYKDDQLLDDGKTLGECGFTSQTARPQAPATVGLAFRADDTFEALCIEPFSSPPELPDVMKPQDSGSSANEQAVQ
# T1 sequence (P40337 whole entry): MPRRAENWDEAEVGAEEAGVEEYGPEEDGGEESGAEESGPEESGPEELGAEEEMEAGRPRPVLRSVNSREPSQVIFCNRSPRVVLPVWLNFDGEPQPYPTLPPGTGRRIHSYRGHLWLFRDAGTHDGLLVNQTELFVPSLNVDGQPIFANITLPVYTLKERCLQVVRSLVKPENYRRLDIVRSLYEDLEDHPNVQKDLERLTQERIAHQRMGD
# T1 sequence (P10275 whole entry T878A): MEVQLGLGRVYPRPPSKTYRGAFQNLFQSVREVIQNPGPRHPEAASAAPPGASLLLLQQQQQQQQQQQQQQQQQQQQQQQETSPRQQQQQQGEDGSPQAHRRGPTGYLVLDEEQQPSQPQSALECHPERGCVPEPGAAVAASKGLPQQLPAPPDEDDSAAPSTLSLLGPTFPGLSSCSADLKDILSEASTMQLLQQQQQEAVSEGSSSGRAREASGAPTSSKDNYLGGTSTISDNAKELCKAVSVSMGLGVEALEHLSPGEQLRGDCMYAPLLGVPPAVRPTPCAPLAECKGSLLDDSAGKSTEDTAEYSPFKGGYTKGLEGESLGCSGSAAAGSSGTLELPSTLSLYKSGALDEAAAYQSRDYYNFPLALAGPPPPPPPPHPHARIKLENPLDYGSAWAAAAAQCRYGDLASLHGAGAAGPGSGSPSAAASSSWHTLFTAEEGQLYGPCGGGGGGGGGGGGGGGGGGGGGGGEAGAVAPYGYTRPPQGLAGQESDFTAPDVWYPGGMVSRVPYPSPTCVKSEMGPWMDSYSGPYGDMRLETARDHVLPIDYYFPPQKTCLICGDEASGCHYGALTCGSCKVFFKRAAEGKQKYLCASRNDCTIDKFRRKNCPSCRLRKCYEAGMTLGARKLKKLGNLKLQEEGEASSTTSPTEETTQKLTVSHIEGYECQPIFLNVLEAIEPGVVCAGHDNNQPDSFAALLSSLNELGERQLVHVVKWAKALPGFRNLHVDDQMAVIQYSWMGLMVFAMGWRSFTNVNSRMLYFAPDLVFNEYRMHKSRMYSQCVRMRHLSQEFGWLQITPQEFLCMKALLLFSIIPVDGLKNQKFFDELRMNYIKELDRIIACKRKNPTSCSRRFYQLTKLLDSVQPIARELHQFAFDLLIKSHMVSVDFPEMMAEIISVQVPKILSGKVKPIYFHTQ
# T1 sequence (Q15369 whole entry, further chain): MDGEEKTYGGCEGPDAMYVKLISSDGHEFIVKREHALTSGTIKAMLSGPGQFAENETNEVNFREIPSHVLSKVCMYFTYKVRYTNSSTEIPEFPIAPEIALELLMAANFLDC
# Procedure: The connector linking the AR-binding warhead and the VHL-binding warhead was systematically probed from 4 to 23 atoms. The AR degradation potency DC50 and the maximum percentage of degradation Dmax of AR in LNCaP cells were measured for each of these compounds. […] The binary binding potency with respect to AR was also measured for some of the compounds by the cell-based ligand (R1881) displacement assay. The ratio α between the AR-binding potency and the degradation potency are calculated when it is possible.
# Androgen Receptor ELISA Assay
# The protocols used with VCaP cells are described below. The androgen receptor ELISA assay was performed using PathScan AR ELISA (Cell Signaling Catalog #12850) according to the following assay steps: […]
# [3] = 22RV1 cells, BRD4-cereblon series, Table 2
# [4] = 22RV1 cells, BRD4-cereblon series, Table 2, read-out: c-Myc expression inhibition IC50
# [5] = 22RV1 cells, BRD4-VHL series, Table 3
# [6] = 22RV1 cells, BRD4-VHL series, Table 3, read-out: c-Myc expression inhibition IC50
# [7] = 22RV1 cells, connector composition changes, Table 4
# [8] = 22RV1 cells, connector composition changes, Table 4, read-out: c-Myc expression inhibition IC50
smiles,measurement,setting,value
Cc1sc2c(c1C)C(c1ccc(Cl)cc1)=NC(CC(=O)NCCNc1cccc3c1C(=O)N(C1CCC(=O)NC1=O)C3=O)c1nnc(C)n1-2 (mixture of isomers) [Compound 19],maximum inhibition Imax,[1]; [3],96%
same,IC50,[1]; [4],187 nM
Cc1sc2c(c1C)C(c1ccc(Cl)cc1)=NC(CC(=O)NCCCNc1cccc3c1C(=O)N(C1CCC(=O)NC1=O)C3=O)c1nnc(C)n1-2 (mixture of isomers) [Compound 20],maximum inhibition Imax,[1]; [3],93%
same,IC50,[1]; [4],123 nM
Cc1sc2c(c1C)C(c1ccc(Cl)cc1)=NC(CC(=O)NCCCCNc1cccc3c1C(=O)N(C1CCC(=O)NC1=O)C3=O)c1nnc(C)n1-2 (mixture of isomers) [Compound 21],maximum inhibition Imax,[1]; [3],88%
same,IC50,[1]; [4],250 nM
Cc1sc2c(c1C)C(c1ccc(Cl)cc1)=NC(CC(=O)NCCCCCNc1cccc3c1C(=O)N(C1CCC(=O)NC1=O)C3=O)c1nnc(C)n1-2 (mixture of isomers) [Compound 22],maximum inhibition Imax,[1]; [3],100%
same,IC50,[1]; [4],3.79 nM
Cc1sc2c(c1C)C(c1ccc(Cl)cc1)=NC(CC(=O)NCCOCCNc1cccc3c1C(=O)N(C1CCC(=O)NC1=O)C3=O)c1nnc(C)n1-2 (mixture of isomers) [Compound 23],maximum inhibition Imax,[1]; [3],100%
same,IC50,[1]; [4],0.682 nM
Cc1sc2c(c1C)C(c1ccc(Cl)cc1)=NC(CC(=O)NCCOCCOCCNc1cccc3c1C(=O)N(C1CCC(=O)NC1=O)C3=O)c1nnc(C)n1-2 (mixture of isomers) [Compound 25],maximum inhibition Imax,[1]; [3],100%
same,IC50,[1]; [4],13 nM
Cc1ncsc1-c1ccc(CNC(=O)[C@@H]2C[C@@H](O)CN2C(=O)[C@@H](NC(=O)CCOCCOc2ccc(N3C(=S)N(c4ccc(C#N)c(C(F)(F)F)c4)C(=O)C3(C)C)cc2)C(C)(C)C)cc1 [Compound 3],maximum AR degradation Dmax,[2],56%
Cc1ncsc1-c1ccc(CNC(=O)[C@@H]2C[C@@H](O)CN2C(=O)[C@@H](NC(=O)CCOCCCOc2ccc(N3C(=S)N(c4ccc(C#N)c(C(F)(F)F)c4)C(=O)C3(C)C)cc2)C(C)(C)C)cc1 [Compound 4],maximum AR degradation Dmax,[2],18%
same,DC50,[2],> 3000 nM
Cc1ncsc1-c1ccc(CNC(=O)[C@@H]2C[C@@H](O)CN2C(=O)[C@@H](NC(=O)COCCOCCCOc2ccc(N3C(=S)N(c4ccc(C#N)c(C(F)(F)F)c4)C(=O)C3(C)C)cc2)C(C)(C)C)cc1 [Compound 6],maximum AR degradation Dmax,[2],54%
same,DC50,[2],72 nM
Cc1ncsc1-c1ccc(CNC(=O)[C@@H]2C[C@@H](O)CN2C(=O)[C@@H](NC(=O)COCCCOCCCOc2ccc(N3C(=S)N(c4ccc(C#N)c(C(F)(F)F)c4)C(=O)C3(C)C)cc2)C(C)(C)C)cc1 [Compound 7],maximum AR degradation Dmax,[2],56%
same,DC50,[2],390 nM
Cc1ncsc1-c1ccc(CNC(=O)[C@@H]2C[C@@H](O)CN2C(=O)[C@@H](NC(=O)COCCCNC(=O)C[C@@H]2N=C(c3ccc(Cl)cc3)c3c(sc(C)c3C)-n3c(C)nnc32)C(C)(C)C)cc1 [Compound 26],maximum inhibition Imax,[1]; [5],98%
same,IC50,[1]; [6],95 nM
Cc1ncsc1-c1ccc(CNC(=O)[C@@H]2C[C@@H](O)CN2C(=O)[C@@H](NC(=O)COCCCCNC(=O)C[C@@H]2N=C(c3ccc(Cl)cc3)c3c(sc(C)c3C)-n3c(C)nnc32)C(C)(C)C)cc1 [Compound 27],maximum inhibition Imax,[1]; [5],100%
same,IC50,[1]; [6],78 nM
Cc1ncsc1-c1ccc(CNC(=O)[C@@H]2C[C@@H](O)CN2C(=O)[C@@H](NC(=O)COCCOCCNC(=O)C[C@@H]2N=C(c3ccc(Cl)cc3)c3c(sc(C)c3C)-n3c(C)nnc32)C(C)(C)C)cc1 [Compound 28],maximum inhibition Imax,[1]; [5],94%
same,IC50,[1]; [6],80.5 nM
Cc1ncsc1-c1ccc(CNC(=O)[C@@H]2C[C@@H](O)CN2C(=O)[C@@H](NC(=O)COCCCOCCNC(=O)C[C@@H]2N=C(c3ccc(Cl)cc3)c3c(sc(C)c3C)-n3c(C)nnc32)C(C)(C)C)cc1 [Compound 29],maximum inhibition Imax,[1]; [5],97%
same,IC50,[1]; [6],0.16 nM
same,maximum inhibition Imax,[1]; [7],97%
same,IC50,[1]; [8],0.16 nM
Cc1ncsc1-c1ccc(CNC(=O)[C@@H]2C[C@@H](O)CN2C(=O)[C@@H](NC(=O)COCCCOCCCNC(=O)C[C@@H]2N=C(c3ccc(Cl)cc3)c3c(sc(C)c3C)-n3c(C)nnc32)C(C)(C)C)cc1 [Compound 30],maximum inhibition Imax,[1]; [5],100%
same,IC50,[1]; [6],19.4 nM
Cc1ncsc1-c1ccc(CNC(=O)[C@@H]2C[C@@H](O)CN2C(=O)[C@@H](NC(=O)COCCOCCOCCNC(=O)C[C@@H]2N=C(c3ccc(Cl)cc3)c3c(sc(C)c3C)-n3c(C)nnc32)C(C)(C)C)cc1 [Compound 31],maximum inhibition Imax,[1]; [5],99.3%
same,IC50,[1]; [6],1.22 nM
Cc1ncsc1-c1ccc(CNC(=O)[C@@H]2C[C@@H](O)CN2C(=O)[C@@H](NC(=O)COCCCOCCCCCNC(=O)C[C@@H]2N=C(c3ccc(Cl)cc3)c3c(sc(C)c3C)-n3c(C)nnc32)C(C)(C)C)cc1 [Compound 32],maximum inhibition Imax,[1]; [5],98%
same,IC50,[1]; [6],0.86 nM
Cc1ncsc1-c1ccc(CNC(=O)[C@@H]2C[C@@H](O)CN2C(=O)[C@@H](NC(=O)COCCOCCOCCCCNC(=O)C[C@@H]2N=C(c3ccc(Cl)cc3)c3c(sc(C)c3C)-n3c(C)nnc32)C(C)(C)C)cc1 [Compound 33],maximum inhibition Imax,[1]; [5],97%
same,IC50,[1]; [6],5 nM
Cc1ncsc1-c1ccc(CNC(=O)[C@@H]2C[C@@H](O)CN2C(=O)[C@@H](NC(=O)COCCOCCOCCOCCNC(=O)C[C@@H]2N=C(c3ccc(Cl)cc3)c3c(sc(C)c3C)-n3c(C)nnc32)C(C)(C)C)cc1 [Compound 34],maximum inhibition Imax,[1]; [5],94%
same,IC50,[1]; [6],34 nM
Cc1ncsc1-c1ccc(CNC(=O)[C@@H]2C[C@@H](O)CN2C(=O)[C@@H](NC(=O)COCCOCCOCCCCOCCOCCNC(=O)C[C@@H]2N=C(c3ccc(Cl)cc3)c3c(sc(C)c3C)-n3c(C)nnc32)C(C)(C)C)cc1 [Compound 37],maximum inhibition Imax,[1]; [5],96.4%
same,IC50,[1]; [6],202 nM
Cc1ncsc1-c1ccc(CNC(=O)[C@@H]2C[C@@H](O)CN2C(=O)[C@@H](NC(=O)COCCOCCOCCOCCOCCOCCNC(=O)C[C@@H]2N=C(c3ccc(Cl)cc3)c3c(sc(C)c3C)-n3c(C)nnc32)C(C)(C)C)cc1 [Compound 38],maximum inhibition Imax,[1]; [5],62.2%
same,IC50,[1]; [6],707 nM
Cc1ncsc1-c1ccc(CNC(=O)[C@@H]2C[C@@H](O)CN2C(=O)[C@@H](NC(=O)CCCCCCCCNC(=O)C[C@@H]2N=C(c3ccc(Cl)cc3)c3c(sc(C)c3C)-n3c(C)nnc32)C(C)(C)C)cc1 [Compound 39],maximum inhibition Imax,[1]; [7],95.4%
same,IC50,[1]; [8],10.2 nM
Cc1ncsc1-c1ccc(CNC(=O)[C@@H]2C[C@@H](O)CN2C(=O)[C@@H](NC(=O)COCCCSCCNC(=O)C[C@@H]2N=C(c3ccc(Cl)cc3)c3c(sc(C)c3C)-n3c(C)nnc32)C(C)(C)C)cc1 [Compound 40],maximum inhibition Imax,[1]; [7],99%
same,IC50,[1]; [8],20.9 nM
Cc1ncsc1-c1ccc(CNC(=O)[C@@H]2C[C@@H](O)CN2C(=O)[C@@H](NC(=O)COCCCCCCNC(=O)C[C@@H]2N=C(c3ccc(Cl)cc3)c3c(sc(C)c3C)-n3c(C)nnc32)C(C)(C)C)cc1 [Compound 41],maximum inhibition Imax,[1]; [7],100%
same,IC50,[1]; [8],25.7 nM
Cc1ncsc1-c1ccc(CNC(=O)[C@@H]2C[C@@H](O)CN2C(=O)[C@@H](NC(=O)COCCCS(=O)(=O)CCNC(=O)C[C@@H]2N=C(c3ccc(Cl)cc3)c3c(sc(C)c3C)-n3c(C)nnc32)C(C)(C)C)cc1 [Compound 42],maximum inhibition Imax,[1]; [7],88.3%
same,IC50,[1]; [8],122 nM
"Cc1sc2c(c1C)C(c1ccc(Cl)cc1)=N[C@@H](CC(=O)OC(C)(C)C)c1nnc(C)n1-2 [JQ1, reference compound]",maximum inhibition Imax,[1]; [3],93%
same,IC50,"[1]; Homo sapiens, 22Rv1, read-out: c-Myc expression IC50",101 nM
same,IC50,"[1]; Homo sapiens, 22Rv1, read-out: c-Myc expression inhibition IC50",101 nM
